Laboratory results reported in PubChem BioAssay AID248 (DTP/NCI, 2004).
“And” between values parts separate entries of the source, which are not always exact repeats. Equal entries are not always repeated. Inconclusive results and toxic doses are left out.

System: L1210 leukemia ip in BDF1 mice, survival T/C
Test: NCI In Vivo Anticancer Drug Screen. Data for tumor model L1210 Leukemia (intraperitoneal) in B6D2F1 (BDF1) mice
Conditions: endpoint: mean survival time, higher = longer survival
Procedure, shortened: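 Tumor cells were implanted, animals were treated, and survival was followed. The result divides the treated measurement by the vehicle-control measurement.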

[1] = dose: 100.0 mg/kg/injection, schedule: Q04DX002 (ip), vehicle: saline
[2] = dose: 50.0 mg/kg/injection, schedule: Q01DX001 (ip), vehicle: saline
[3] = dose: 100.0 mg/kg/injection, schedule: Q01DX001 (ip), vehicle: saline
[4] = dose: 200.0 mg/kg/injection, schedule: Q01DX001 (ip), vehicle: saline
[5] = dose: 400.0 mg/kg/injection, schedule: Q01DX001 (ip), vehicle: saline
[6] = dose: 100.0 mg/kg/injection, schedule: Q01DX009 (ip), vehicle: Klucel (hydroxypropylcellulose) (HPC)
[7] = dose: 200.0 mg/kg/injection, schedule: Q01DX009 (ip), vehicle: Klucel (hydroxypropylcellulose) (HPC)
[8] = dose: 400.0 mg/kg/injection, schedule: Q01DX009 (ip), vehicle: Klucel (hydroxypropylcellulose) (HPC)
[9] = dose: 100.0 mg/kg/injection, schedule: Q04DX003 (ip), vehicle: saline with Tween-80
[10] = dose: 200.0 mg/kg/injection, schedule: Q04DX003 (ip), vehicle: saline with Tween-80
[11] = dose: 400.0 mg/kg/injection, schedule: Q04DX003 (ip), vehicle: saline with Tween-80
[12] = dose: 100.0 mg/kg/injection, schedule: Q04DX003 (ip), vehicle: Klucel (hydroxypropylcellulose) (HPC)
[13] = dose: 200.0 mg/kg/injection, schedule: Q04DX003 (ip), vehicle: Klucel (hydroxypropylcellulose) (HPC)
[14] = dose: 400.0 mg/kg/injection, schedule: Q04DX003 (ip), vehicle: Klucel (hydroxypropylcellulose) (HPC)

## CC1=CC(C)(C)NC(=S)N1c1cccc([N+](=O)[O-])c1
dose: 224.0 mg/kg/injection, schedule: Q01DX Z (ip), vehicle: methylcellulose (MC)
  T/C: 88 % of control
dose: 334.0 mg/kg/injection, schedule: Q01DX Z (ip), vehicle: methylcellulose (MC)
  T/C: 89 % of control
dose: 500.0 mg/kg/injection, schedule: Q01DX Z (ip), vehicle: methylcellulose (MC)
  T/C: 94 % of control

## O=C(COc1ccc(Cl)cc1Cl)NNc1ccc([N+](=O)[O-])cc1
[1]
  T/C: 100 % of control
dose: 200.0 mg/kg/injection, schedule: Q04DX002 (ip), vehicle: saline
  T/C: 92 % of control
dose: 400.0 mg/kg/injection, schedule: Q04DX002 (ip), vehicle: saline
  T/C: 88 % of control

## CN(C)NC(=O)CC(NCc1ccccc1)C(=O)O (stereo not drawn)
dose: 100.0 mg/kg/injection, schedule: Q01DX009 (ip), vehicle: saline with Tween-80
  T/C: 94 % of control
dose: 200.0 mg/kg/injection, schedule: Q01DX009 (ip), vehicle: saline with Tween-80
  T/C: 95 % of control
dose: 400.0 mg/kg/injection, schedule: Q01DX009 (ip), vehicle: saline with Tween-80
  T/C: 95 % of control

## CCCCCCN(C)Cc1ccc(OCCOc2ccc(CN(C)CCCCCC)cc2)cc1
[2]
  T/C: 100 % of control

## COC1OC(CBr)C(Br)C(OC(=O)c2ccccc2)C1OC(=O)c1ccccc1 (stereo not drawn)
dose: 75.0 mg/kg/injection, schedule: Q04DX002 (ip), vehicle: Klucel (hydroxypropylcellulose) (HPC)
  T/C: 103 % of control
dose: 150.0 mg/kg/injection, schedule: Q04DX002 (ip), vehicle: Klucel (hydroxypropylcellulose) (HPC)
  T/C: 98 % of control
dose: 300.0 mg/kg/injection, schedule: Q04DX002 (ip), vehicle: Klucel (hydroxypropylcellulose) (HPC)
  T/C: 98 % of control

## O=C1CSC(c2ccccc2)N1c1ccccc1 (stereo not drawn)
[2]
  T/C: 106 % of control
[3]
  T/C: 118 % of control
[4]
  T/C: 108 % of control
[5]
  T/C: 100 % of control

## CC(=O)OC1C=CN(C(C)=O)C(SC23CC4CC(CC(C4)C2)C3)C1O (stereo not drawn)
[6]
  T/C: 97 % of control
[7]
  T/C: 97 % of control
[8]
  T/C: 95 % of control

## CN(C)C(=O)Nc1ccc(Cc2ccc(NC(=O)N(C)C)cc2)cc1
[6]
  T/C: 96 % of control
[7]
  T/C: 92 % of control
[8]
  T/C: 96 % of control

## CSc1ccc(C(=O)C(CO)NC(C)=O)cc1 (stereo not drawn)
[3]
  T/C: 110 % of control
[4]
  T/C: 98 % of control
[5]
  T/C: 97 % of control

## C=CC1CCN(CCn2cc(C)c(=O)[nH]c2=O)CC1
[9]
  T/C: 101 % of control
[10]
  T/C: 107 % of control
[11]
  T/C: 101 % of control

## CCN(CC)CCCC(C)Nc1c(C)cnc2cc(Cl)c(C)cc12 (stereo not drawn)
[2]
  T/C: 112 % of control
[3]
  T/C: 95 % of control
[4]
  T/C: 101 % of control

## CC(=O)Oc1ccc2ncccc2c1Cc1c(OC(C)=O)ccc2ncccc12
dose: 75.0 mg/kg/injection, schedule: Q04DX003 (ip), vehicle: saline
  T/C: 91 % of control
dose: 150.0 mg/kg/injection, schedule: Q04DX003 (ip), vehicle: saline
  T/C: 95 % of control
dose: 300.0 mg/kg/injection, schedule: Q04DX003 (ip), vehicle: saline
  T/C: 95 % of control

## COc1cccc2c1C(=O)c1c(O)c3c(c(O)c1C2=O)C[C@@](O)(C(=O)COC(=O)c1cccnc1)C[C@@H]3OC1CC(N)C(O)C(C)O1 (stereo partly drawn)
dose: 1.6 mg/kg/injection, schedule: Q01DX009 (ip), vehicle: saline
  T/C: 153 % of control
dose: 2.4 mg/kg/injection, schedule: Q01DX009 (ip), vehicle: saline
  T/C: 153 % of control

## O=C(Nc1ccccc1)OCCc1ccc([N+](=O)[O-])cc1
[12]
  T/C: 100 % of control
[13]
  T/C: 98 % of control
[14]
  T/C: 102 % of control

## Cc1nc2ccccc2o1
dose: 100.0 mg/kg/injection, schedule: Q04DX002 (ip), vehicle: other
  T/C: 104 % of control
dose: 200.0 mg/kg/injection, schedule: Q04DX002 (ip), vehicle: other
  T/C: 96 % of control
dose: 400.0 mg/kg/injection, schedule: Q04DX002 (ip), vehicle: other
  T/C: 118 % of control

## C[N+](C)(Cc1ccccc1)CC(O)COc1ccccc1 (stereo not drawn)
dose: 12.5 mg/kg/injection, schedule: Q01DX001 (ip), vehicle: saline with Tween-80
  T/C: 108 % of control
dose: 12.5 mg/kg/injection, schedule: Q01DX009 (ip), vehicle: saline with Tween-80
  T/C: 100 % of control
dose: 12.5 mg/kg/injection, schedule: Q04DX003 (ip), vehicle: saline with Tween-80
  T/C: 92 % of control
dose: 25.0 mg/kg/injection, schedule: Q01DX001 (ip), vehicle: saline with Tween-80
  T/C: 100 % of control
dose: 25.0 mg/kg/injection, schedule: Q01DX009 (ip), vehicle: saline with Tween-80
  T/C: 94 % of control
dose: 25.0 mg/kg/injection, schedule: Q04DX003 (ip), vehicle: saline with Tween-80
  T/C: 94 % of control
dose: 50.0 mg/kg/injection, schedule: Q01DX001 (ip), vehicle: saline with Tween-80
  T/C: 100 % of control
dose: 50.0 mg/kg/injection, schedule: Q01DX009 (ip), vehicle: saline with Tween-80
  T/C: 102 % of control
dose: 50.0 mg/kg/injection, schedule: Q04DX003 (ip), vehicle: saline with Tween-80
  T/C: 103 % of control

## O=C(CC1(O)C(=O)Nc2ccc(Br)cc21)c1ccc2c(c1)OCO2 (stereo not drawn)
dose: 100.0 mg/kg/injection, schedule: Q04DX002 (ip), vehicle: Klucel (hydroxypropylcellulose) (HPC)
  T/C: 92 % of control
dose: 200.0 mg/kg/injection, schedule: Q04DX002 (ip), vehicle: Klucel (hydroxypropylcellulose) (HPC)
  T/C: 104 % of control
dose: 400.0 mg/kg/injection, schedule: Q04DX002 (ip), vehicle: Klucel (hydroxypropylcellulose) (HPC)
  T/C: 95 % of control

## CC(=O)OC1CCC2(C)C(=CCC3C2CCC2(C)c4c(-c5ccccc5)nn(-c5ccccc5)c4CC32)C1 (stereo not drawn)
dose: 12.5 mg/kg/injection, schedule: Q04DX002 (ip), vehicle: Klucel (hydroxypropylcellulose) (HPC)
  T/C: 96 % of control
dose: 25.0 mg/kg/injection, schedule: Q04DX002 (ip), vehicle: Klucel (hydroxypropylcellulose) (HPC)
  T/C: 96 % of control
dose: 50.0 mg/kg/injection, schedule: Q04DX002 (ip), vehicle: Klucel (hydroxypropylcellulose) (HPC)
  T/C: 101 % of control

## OCC1OC(c2ccccc2)OC2C(CO)OC(c3ccccc3)OC12 (stereo not drawn)
[9]
  T/C: 93 % of control
[10]
  T/C: 96 % of control
[11]
  T/C: 89 % of control

## COc1ccc(-n2c(=O)c(N=Nc3ccccc3C)c(O)n(-c3ccc(Cl)cc3)c2=S)cc1
dose: 50.0 mg/kg/injection, schedule: Q01DX001 (ip), vehicle: Klucel (hydroxypropylcellulose) (HPC)
  T/C: 100 % of control
dose: 100.0 mg/kg/injection, schedule: Q01DX001 (ip), vehicle: Klucel (hydroxypropylcellulose) (HPC)
  T/C: 100 % of control
dose: 200.0 mg/kg/injection, schedule: Q01DX001 (ip), vehicle: Klucel (hydroxypropylcellulose) (HPC)
  T/C: 102 % of control

## O=C(NC1CCC(CC2CCCCC2)CC1)C(Cl)Cl (stereo not drawn)
[6]
  T/C: 91 % of control
[12]
  T/C: 93 % of control
[7]
  T/C: 93 % of control
[13]
  T/C: 88 % of control
[8]
  T/C: 91 % of control
[14]
  T/C: 109 % of control

## CCNc1ccc([N+](=O)[O-])cn1
[6]
  T/C: 104 % of control
[7]
  T/C: 106 % of control

## O=C(Nc1cccc(C(F)(F)F)c1)Oc1ccc(F)cc1Cl
dose: 25.0 mg/kg/injection, schedule: Q01DX009 (ip), vehicle: gum acacia
  T/C: 100 % of control
dose: 50.0 mg/kg/injection, schedule: Q01DX009 (ip), vehicle: gum acacia
  T/C: 98 % of control
dose: 100.0 mg/kg/injection, schedule: Q01DX009 (ip), vehicle: gum acacia
  T/C: 88 % of control

## COC(=O)c1c([N+](=O)[O-])ncn1C1OC(COC(C)=O)C(OC(C)=O)C1OC(C)=O (stereo not drawn)
[3]
  T/C: 102 % of control
[4]
  T/C: 103 % of control
[5]
  T/C: 94 % of control

## CCN(CC)CCCC(C)Nc1ccc(NC(C)CCCN(CC)CC)c2c1C(=O)c1ccccc1C2=O (stereo not drawn)
dose: 25.0 mg/kg/injection, schedule: Q01DX009 (ip), vehicle: saline
  T/C: 96 % of control
dose: 25.0 mg/kg/injection, schedule: Q04DX002 (ip), vehicle: saline
  T/C: 92 % of control
dose: 50.0 mg/kg/injection, schedule: Q01DX009 (ip), vehicle: saline
  T/C: 89 % of control
dose: 50.0 mg/kg/injection, schedule: Q04DX002 (ip), vehicle: saline
  T/C: 103 % of control
[1]
  T/C: 96 % of control and 98 % of control
